In ChEMBL document CHEMBL5050844 (2019):

Assays:
[1] = biological target: E3 ubiquitin-protein ligase CBL-B (Homo sapiens, UniProt Q13191); experiment: Inhibition of N-terminal Avi-tagged human CBL-B (36 to 427 residues) incubated with 60 nM Src kinase for 1.5 hrs followed by incubation with fluorescently labeled UbcH5B-Ub for 1 hr and measured by TR-FRET assay; assay type: single protein
[2] = Induction of anti-CD3/CD28 antibodies-stimulated human T cell activation at 1 uM assessed fold increase in IL-2 secretion measured by ELISA assay; assay type: functional, T cell line
[3] = Induction of anti-CD3/CD28 antibodies-stimulated human T cell activation at 0.3 uM assessed fold increase in IL-2 secretion measured by ELISA assay; assay type: functional, T cell line
[4] = Induction of anti-CD3 antibodies-stimulated human T cell activation at 1 uM assessed fold increase in IL-2 secretion measured by ELISA assay; assay type: functional, T cell line; further: reference of the scale not given here
[5] = Induction of anti-CD3/CD28 antibodies-stimulated human T cell activation at 1 uM assessed fold increase in CD25 expression measured by ELISA assay; assay type: functional, T cell line
[6] = Induction of anti-CD3/CD28 antibodies-stimulated human T cell activation at 0.3 uM assessed fold increase in CD25 expression measured by ELISA assay; assay type: functional, T cell line
[7] = Induction of anti-CD3 antibodies-stimulated human T cell activation at 1 uM assessed fold increase in CD25 expression measured by ELISA assay; assay type: functional, T cell line; further: reference of the scale not given here

Chain of E3 ubiquitin-protein ligase CBL-B (Q13191 whole entry, the tested form may be a part): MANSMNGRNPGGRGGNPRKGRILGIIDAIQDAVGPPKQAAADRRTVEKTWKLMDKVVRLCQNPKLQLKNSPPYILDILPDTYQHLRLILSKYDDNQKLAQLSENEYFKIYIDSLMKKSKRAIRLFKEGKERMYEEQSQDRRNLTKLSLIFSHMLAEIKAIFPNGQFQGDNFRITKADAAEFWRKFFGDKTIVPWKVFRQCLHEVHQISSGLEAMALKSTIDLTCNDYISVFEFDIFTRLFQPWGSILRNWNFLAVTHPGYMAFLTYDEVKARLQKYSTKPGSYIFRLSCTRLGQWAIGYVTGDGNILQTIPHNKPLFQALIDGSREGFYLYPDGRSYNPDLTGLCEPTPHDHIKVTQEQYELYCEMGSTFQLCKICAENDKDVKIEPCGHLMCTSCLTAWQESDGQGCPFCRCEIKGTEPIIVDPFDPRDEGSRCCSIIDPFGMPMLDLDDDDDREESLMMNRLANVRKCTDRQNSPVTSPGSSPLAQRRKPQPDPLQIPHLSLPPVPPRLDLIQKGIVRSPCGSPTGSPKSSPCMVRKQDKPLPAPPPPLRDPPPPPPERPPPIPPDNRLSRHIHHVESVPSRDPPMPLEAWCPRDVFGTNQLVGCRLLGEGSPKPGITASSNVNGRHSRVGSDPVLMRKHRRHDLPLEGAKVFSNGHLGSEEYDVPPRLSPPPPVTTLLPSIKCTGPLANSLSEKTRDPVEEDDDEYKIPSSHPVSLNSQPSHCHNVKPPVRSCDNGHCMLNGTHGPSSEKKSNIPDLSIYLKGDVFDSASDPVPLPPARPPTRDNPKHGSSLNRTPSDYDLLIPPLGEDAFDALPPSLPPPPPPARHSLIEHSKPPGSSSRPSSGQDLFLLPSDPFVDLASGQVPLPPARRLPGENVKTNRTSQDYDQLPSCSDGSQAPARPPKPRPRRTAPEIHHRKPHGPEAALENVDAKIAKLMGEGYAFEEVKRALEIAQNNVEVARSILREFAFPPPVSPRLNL

SMILES | IC50 [1] [µM] | fold change (FC) [2] | fold change (FC) [3] | fold change (FC) [4] | fold change (FC) [5] | fold change (FC) [6] | fold change (FC) [7]
C[C@H](Cc1nncn1C)c1cc(C2CCOC2)nc(N2Cc3c(cccc3C(F)(F)F)C2=O)c1 (some centres undefined) | ≤ 1 | 1.01 | 1.01 | <=0.05 | 1.01 | 1.01 | <=0.6
Cn1cnnc1CC1(c2cccc(N3Cc4c(cc(C(N5CCCC5)C(F)(F)F)cc4C(F)(F)F)C3=O)c2)COC1 (centres undefined) | < 0.1 | 2.51 | 1.01 | 0.051 | 1.31 | 1.01 | 0.801
Cn1cnnc1C[C@@]1(c2cccc(N3Cc4c(cc(CN5CCC6(CC6)C5)cc4C(F)(F)F)C3=O)c2)CCOC1 | < 0.1 | >=7.5 | 2.51 | 0.101 | 1.01 | 1.01 | 0.801
Cc1conc1CC1(c2cccc(NC(=O)c3cc(CN4CCC5(CC5)C4)nc(C4CC4)n3)c2)COC1 | < 0.1 | >=7.5 | >=7.5 | >=0.201 | 1.31 | 1.31 | >=1.001
Cc1cc(C(=O)Nc2cccc([C@@]3(Cc4nncn4C)CCOC3)c2)nc(C2CC2)n1 | < 0.1 | 2.51 | 2.51 | 0.101 | 1.01 | 1.01 | 0.801
Cn1cnnc1CC1(c2cccc(N3Cc4c(cc(N5CCNC6(CC6)C5)cc4C(F)(F)F)C3=O)c2)COC1 | < 0.1 | >=7.5 | >=7.5 | 0.101 | 1.31 | 1.31 | >=1.001
Cn1cnnc1C[C@]1(c2cccc(N3Cc4c(cc(CN5CCC6(CC6)C5)cc4C(F)(F)F)C3=O)c2)CCOC1 | < 0.1 | >=7.5 | >=7.5 | >=0.201 | 1.01 | 1.01 | >=1.001
C[C@@H]1CCN(Cc2cc3c(c(C(F)(F)F)c2)CN(c2cccc(C4(Cc5nncn5C)COC4)c2)C3=O)C[C@H]1F (relative stereo) | < 0.1 | >=7.5 | >=7.5 | >=0.201 | 1.51 | 1.31 | >=1.001
CN1C2CCC1CN(c1cc3c(c(C(F)(F)F)c1)CN(c1cccc(C4(Cc5nncn5C)COC4)c1)C3=O)C2 | < 0.1 | 5 | 2.51 | 0.151 | 1.01 | 1.01 | >=1.001
Cn1cnnc1CC1(c2cccc(N3Cc4c(cc(CN5CCC6(CC6)C(F)(F)C5)cc4C(F)(F)F)C3=O)c2)COC1 | < 0.1 | >=7.5 | 2.51 | >=0.201 | 1.31 | 1.31 | >=1.001
CN1CC[C@@H](O)[C@H](Cc2cc3c(c(C(F)(F)F)c2)CN(c2cccc(C4(Cc5nncn5C)COC4)c2)C3=O)C1 (relative stereo) | < 0.1 | 2.51 | 1.01 | 0.101 | 1.01 | 1.01 | 0.801

Further lines, with some results ahead:

IC50 [1] [µM] | SMILES | fold change (FC) [2] | fold change (FC) [3] | fold change (FC) [4] | fold change (FC) [5] | fold change (FC) [6] | fold change (FC) [7]
< 0.1 | C[C@@H](c1cc2c(c(C(F)(F)F)c1)CN(c1cccc(C3(C(F)(F)c4nncn4C)COC3)c1)C2=O)N1CC[C@H](F)C1 | >=7.5 | 2.51 | >=0.201 | 1.51 | 1.31 | >=1.001
< 0.1 | Cn1cnnc1CC1(c2cccc(N3Cc4c(cc(C5CC5)nc4C4CC4)C3=O)c2)COC1 | 1.01 | 1.01 | 0.101 | 1.01 | 1.01 | 0.801
< 0.1 | Cn1cnnc1CC1(c2cccc(N3Cc4c(cc(CN5CC[C@@H]6C[C@@H]65)cc4C(F)(F)F)C3=O)c2)COC1 | >=7.5 | >=7.5 | >=0.201 | 1.51 | 1.51 | >=1.001
< 0.1 | Cn1cnnc1CC1(c2cccc(N3Cc4c(cc(CN5CCC6CC6C5)cc4C(F)(F)F)C3=O)c2)COC1 (centres undefined) | >=7.5 | >=7.5 | >=0.201 | 1.31 | 1.31 | >=1.001
< 0.1 | C[C@H](c1cc2c(c(C(F)(F)F)c1)CN(c1cccc(C3(Cc4nncn4C)COC3)c1)C2=O)N1CCC2(CC1)CC2 | >=7.5 | >=7.5 | >=0.201 | 1.01 | 1.01 | >=1.001
< 0.1 | CCOc1cc(N2Cc3c(cc([C@@H](C)N4CC[C@H](F)C4)cc3C(F)(F)F)C2=O)cc(C2(Cc3nncn3C)COC2)c1 | >=7.5 | >=7.5 | >=0.201 | 1.51 | 1.31 | >=1.001
< 0.1 | Cc1cc(C(=O)Nc2cccc(C3(Cc4nncn4C)COC3)c2)n2ncc(C)c2n1 | 2.51 | 2.51 | 0.051 | 1.01 | 1.01 | 0.801
< 0.1 | Cn1cnnc1CC1(c2cccc(N3Cc4c(cc(N5CC6(CCC6(F)F)C5)cc4C(F)(F)F)C3=O)c2)COC1 | 2.51 | 1.01 | <=0.05 | 1.01 | 1.01 | 0.601
< 0.1 | Cn1cnnc1CC1(c2cccc(N3Cc4c(cc(N5CCOCC5)cc4C(F)(F)F)C3=O)c2)COC1 | >=7.5 | 5 | 0.101 | 1.51 | 1.31 | >=1.001
< 0.1 | CC(O)c1cc2c(c(C(F)(F)F)c1)CN(c1cccc(C3(Cc4nncn4C)COC3)c1)C2=O (centres undefined) | 2.51 | 1.01 | 0.151 | 1.01 | 1.01 | >=1.001
< 0.1 | Cn1cnnc1CC1(c2cccc(N3Cc4c(cc(CN5CC6C(C5)C6(F)F)cc4C(F)(F)F)C3=O)c2)COC1 (centres undefined) | >=7.5 | 5 | >=0.201 | 1.31 | 1.31 | >=1.001
